The values that follow come from publication PMC5988308, “Rhodanine derivatives as potent anti-HIV and anti-HSV microbicides” (PLoS ONE, 2018).

Molecules are shown by their SMILES. Like-named read-outs stand apart in the source and are kept apart here.

Data set [1] has as its system HSV-2 acyclovir resistant. In words: HSV-2 acyclovir resistant plaque reduction assay on Vero cells. Format: cell-based. Particulars: Human alphaherpesvirus 2, Vero, read-out: HSV-2 acyclovir resistant EC50. As for the experimental part:
(§1) Clinical isolates of HSV-1 and HSV-2 were kindly provided by Prof. M. Pistello, University of Pisa, Italy. HSV-1 and HSV-2 strains were propagated and titrated by plaque assay on Vero cells. A HSV-2 strain with phenotypic resistance to acyclovir was generated by serial passage in the presence of increasing concentrations of acyclovir, as previously described.
The effect of the rhodanine derivatives on HSV infection was evaluated by plaque reduction assay. Vero cells were pre-plated 24 h in advance in 24-well plates at a density of […]. Increasing concentrations of compounds were mixed with HSV-2 (MOI 0.001 pfu/cell) or HSV-2 acyclovir resistant (MOI 0.001) or HSV-1 (MOI 0.0005) or and incubated for 1 hour at 37°C. The mixtures were subsequently added to the cells, which were then incubated at 37°C for 2 h. […] After further incubation at 37°C for 24 h (HSV-2 and HSV-2 R Acy) or 48 h (HSV-1), cells were fixed and stained with 0.1% crystal violet in 20% ethanol and viral plaques counted. […] The selectivity index (SI) was calculated by dividing the CC50 by the EC50 value.
All results are presented as the mean values from three independent experiments. The EC50 values for inhibition curves were calculated by regression analysis using the software GraphPad Prism (GraphPad Software, San Diego, California, U.S.A.) by fitting a variable slope-sigmoidal dose–response curve. […]
For orientation: Plaques are areas of infected cells; plaque reduction assays count them against a control.

In data set [2] the test system is HIV-1 AD8. In words: Inhibition of antiviral activity by purified bovine serum albumin (TZM-bl, AD8). The format is cell-based. As for the experimental part:
To confirm the binding of compound 2 to serum albumin, infection was performed in presence of different concentrations of purified bovine serum albumin (BSA, Sigma Aldrich) starting from the concentration that is usually present in FBS serum (35 mg/mL, 1X) and increasing to a five-fold concentration (175 mg/mL) up to a ten-fold concentration (350 mg/mL). […] After one hour, the mixture was added to 40.000 TZM-bl cells/well plated in DMEM supplemented with 50 μg/mL penicillin, 50 μg/mL streptomycin, 30 μg/mL DEAE-dextran and 10% FBS in a 96-well plate. After two days the infection was evaluated through a CPRG assay.

Data set [3] has as its system HIV-1 AD8. Briefly: Inhibition of antiviral activity by fetal bovine serum (TZM-bl, AD8). The format is cell-based. The note with it: FBS 0% to 10%. As for the experimental part:
To evaluate the binding of compounds to plasma proteins also in a cell based assay, the infection with the HIV laboratory strain AD8 was performed in absence or in presence of different concentrations of Fetal Bovine Serum (FBS): 2%, 5% and 10%. The representative compound 2 was pre-incubated at different concentrations ranging from 10 μM to 3.2 nM with 300 TCID50 /mL of AD8 in DMEM supplemented with 50 μg/mL penicillin, 50 μg/mL streptomycin, 30 μg/mL DEAE-dextran and FBS at the concentration described above. Maraviroc was used as control. After an hour the mixture was added to 40.000 TZM-bl cells/well plated in a 96-well plate and after two days the infection was quantified using a CPRG assay (Roche) as previously described.

For another data set, the system named is HIV-1 AD8 WT. Briefly: Antiviral activity on human CD4+ T lymphocytes, AD8 WT. The format is cell-based. The note with it: Human immunodeficiency virus 1; human CD4+ T lymphocytes; read-out: AD8 WT EC50. As for the experimental part: (§2) The antiviral activity and cytotoxicity of compounds 2, 9e and 9f was tested also on freshly purified human CD4^+ T lymphocytes obtained from healthy blood donors (informed consent available) as described previously on HIV laboratory strain NL4.3 and AD8 [33, 34].

For the next data set, the system named is HIV-1 NL 4.3 WT. In words: Antiviral activity on human CD4+ T lymphocytes, NL4.3 WT. The format is cell-based. Particulars: Human immunodeficiency virus 1; human CD4+ T lymphocytes; read-out: NL 4.3 WT EC50. As for the experimental part:
as §2

The test system of a further data set is NL4.3 HIV strain. Briefly: Antiviral activity in microbicide gel formulation, transwell experiment, TZM-bl cells. The note with it: Human immunodeficiency virus 1, gel at 50%. Format: cell-based, HIV-1. As for the experimental part: All the semi-solid formulations were prepared adding at the pre-gel solution reported above hydroxyethyl cellulose (HEC) (1.8% w/v). In all samples, 0.2% v/v propionic acid was added to aqueous solution in order to preserve form bacteria and mold contamination. HEC was dispersed in the pre-gel solution at 25°C under magnetic stirring, overnight.
Antiviral activity of compound 2 on NL4.3 HIV strain was evaluated also in a gel formulation. To reproduce more physiological conditions, TZM-bl cells were seeded into transwells and the gel was applied onto the cell monolayer at 50% fixed concentration with serial drug dilutions as previously described. Briefly, 4x10^4 TZM-bl cells were plated into each transwell apical chamber of a 24-well plate (pore size 3μm and diameter 6,5 mm, Corning) containing medium in the bottom plate and cultured overnight. For efficacy testing, 60 TCID50 of virus was added to each apical well in the presence of 100 μL of compound 2 gel, tenofovir gel or blank gel at the final drug concentrations of 25μM, 10 μM and 5 μM. Inhibition of infection was determined as previously based on deviations from blank gel.

The next data set has as its system HSV-1. Briefly: HSV-1 plaque reduction assay on Vero cells. Format: cell-based. Particulars: read-out: HSV-1 EC50, Vero cells. As for the experimental part: as §1
The effect of the rhodanine derivatives on HSV infection was evaluated by plaque reduction assay. Vero cells were pre-plated 24 h in advance in 24-well plates at a density of […]. Increasing concentrations of compounds were mixed with HSV-2 (MOI 0.001 pfu/cell) or HSV-2 acyclovir resistant (MOI 0.001) or HSV-1 (MOI 0.0005) or and incubated for 1 hour at 37°C. The mixtures were subsequently added to the cells, which were then incubated at 37°C for 2 h. The virus inoculum was then removed and the cells washed and overlaid with a medium containing 1.2% methylcellulose (Sigma). After further incubation at 37°C for 24 h (HSV-2 and HSV-2 R Acy) or 48 h (HSV-1), cells were fixed and stained with 0.1% crystal violet in 20% ethanol and viral plaques counted. The effective concentration producing 50% reduction (EC50) and 90% reduction (EC90) in plaque formation was determined using Prism software by comparing drug-treated with wells treated with medium and solvent. The selectivity index (SI) was calculated by dividing the CC50 by the EC50 value.
All results are presented as the mean values from three independent experiments. The EC50 values for inhibition curves were calculated by regression analysis using the software GraphPad Prism (GraphPad Software, San Diego, California, U.S.A.) by fitting a variable slope-sigmoidal dose–response curve. Acyclovir was purchased from Sigma Aldrich (Milan, Italy).

Data set [4] relates to recombinant HIV-1 integrase Y143R. Briefly: Antiviral activity on human CD4+ T lymphocytes, integrase mutant Y143R. The format is cell-based. Particulars: Human immunodeficiency virus 1, read-out: Y143R EC50.
Data set [5] is described as follows: Storage stability and rheological characterization of gel. Format: physicochemical. The note with it: 50 μM, 25°C in the dark. As for the experimental part: All the semi-solid formulations were prepared adding at the pre-gel solution reported above hydroxyethyl cellulose (HEC) (1.8% w/v). In all samples, 0.2% v/v propionic acid was added to aqueous solution in order to preserve form bacteria and mold contamination. HEC was dispersed in the pre-gel solution at 25°C under magnetic stirring, overnight. Gel containing compound 2 was stored at 25°C in the dark. At predetermined data points, the formulations were visually inspected to evidence aggregate formations and the pH was measured. Rheological evaluations were performed using a rotational viscometer (Bohlin Model Visco 88, Bohlin Instruments, UK). Appropriate measuring spindles (C14 DIN) were used during viscosity measurements. Samples were loaded into the cup and allowed to equilibrate for 10 min at desired temperature (25 ± 0.5°C) and apparent viscosity (mPa s) was determined using a shear rate of 552 s^-1 over a 1 month period.

Data set [6] in a line: Cytotoxicity on human CD4+ T lymphocytes. Format: cell-based. As for the experimental part:
as §2

A further data set relates to human CD4+ T lymphocytes. In words: Cytotoxicity on human CD4+ T lymphocytes. Format: cell-based. As for the experimental part: as §2
Data set [7] has as its system recombinant HIV-1 integrase Q148H, G140S. In words: Antiviral activity on human CD4+ T lymphocytes, integrase mutant Q148H, G140S. Format: cell-based. The note with it: Human immunodeficiency virus 1, read-out: Q148H, G140S EC50.

One may read the EC50 as the midpoint of the concentration-response curve. The CC50 is the concentration giving 50% cytotoxicity. High values mean better tolerance by the cells, low ones harm at low concentration. Turning to `O=C(O)c1ccc(-c2ccc(/C=C3\SC(=S)N(Cc4ccc(Cl)cc4)C3=O)o2)cc1O` [Compound 2], the 50% effective concentration (EC50) in [1] was found to be 0.0107 ± 0.00634 µM; with HIV-1 AD8 WT it was 0.011 ± 0.001 µM; with HIV-1 NL 4.3 WT, 0.013 ± 0.003 µM; with NL4.3 HIV strain, 13 µM; in the data set on HSV-1 (Human alphaherpesvirus 1, Vero), 0.132 µM; with HSV-1 it was 0.131 ± 0.0599 µM. The values for the half-maximal effective concentration (EC50) in data set [4] and in data set [7] were 0.008 ± 0.003 µM and 0.009 ± 0.002 µM, respectively. For the same compound, the “reduction of antiviral activity with physiological BSA, compound at 400 nM” value in the data set on HIV-1 AD8 [2] (1X = 35 mg/mL BSA, 400 nM) is on record as “about 50%”. The “loss of antiviral activity with physiological BSA, compound at 2 μM” value in the data set on HIV-1 AD8 [2] (1X = 35 mg/mL BSA, 2 μM) was 20%. The “antiviral activity with BSA concentration increased 5 to 10 folds” value with HIV-1 AD8 [2] (175-350 mg/mL BSA, 400 nM) was “complete loss of activity”. Moreover, the “effect of FBS concentration on antiviral activity” value in the data set on HIV-1 AD8 [3] is reported as “progressive loss of activity”. Besides, the “recovery after 1 month of storage” value in data set [5] is listed as “about 100%”. In data set [6], this compound had a CC50 of 0.81 ± 0.02 µM. Besides, in the data set with human CD4+ T lymphocytes, the “SI (Selectivity Index)” value is 62.
